According to US9604974B2, “Compounds as modulator of JAK-STAT pathway, methods and applications thereof” (UNIVERSITY OF MYSORE, priority 2015, dated 2017):

Test system: Huh 7-Luc tumors
Experiment: Orthotopic human HCC model, bioluminescence tumor growth
Assay type: in vivo, athymic nu/nu female mice
Details: 10 mg/kg intraperitoneal, five days a week; p value=0.0385
Experimental: All animal experiments were performed according to protocols approved by the SingHealth Institutional Animal Use and Care Committee. For drug efficacy study, eight week-old athymic nu/nu female mice (from Biolasco, Taiwan) were implanted with the Huh 7-Luc cells orthotopically as described in the below examples. When the bioluminescence signal reached 10^6, mice were treated either with vehicle (1% DMSO), 2 mg/kg of CIMO or 10 mg/kg of CIMO five days a week intraperitoneally. Tumor development was monitored twice a week by measuring the bioluminescence signals. Mice were euthanized when the humane end-point criteria is met by CO2 inhalation. Primary liver tumor and lung tissues were excised, snap-frozen and stored at −80° C. until further analysis.
The antitumor potential of CIMO is tested in vivo via. intra-peritoneal administration in an orthotopic model of human HCC using Huh 7-Luc transfected cells. 100 μl containing 3×10^6 Huh 7-Luc cells are injected subcutaneously in the right flank of Nude mice. When the tumor volume reaches approximately 1 cm^3, tumor is harvested, cut into 2 mm^3 pieces and then implanted orthotopically into the liver of Nude mice. […] The development of tumors is monitored by imaging and quantification of the bioluminescence signals using the Xenogen IVIS system (Caliper Life Sciences, CA). […]

COc1ccc(C2CNC(c3cn(Cc4ccc(-c5ccccc5C#N)cc4)c4ccccc34)OC23CCCCC3)cc1 (stereo not shown) [Compound 1]
tumor growth versus DMSO treated controls: significant inhibition of tumor growth
